We go through 48 molecules from patent US9458176B2, “Tetrahydroimidazo(1,5-D)[1,4]oxazepine derivative” (Eisai R&D Management Co., Ltd., priority 2013, dated 2016).

Chain of human mGluR2 (Q14416 19-872): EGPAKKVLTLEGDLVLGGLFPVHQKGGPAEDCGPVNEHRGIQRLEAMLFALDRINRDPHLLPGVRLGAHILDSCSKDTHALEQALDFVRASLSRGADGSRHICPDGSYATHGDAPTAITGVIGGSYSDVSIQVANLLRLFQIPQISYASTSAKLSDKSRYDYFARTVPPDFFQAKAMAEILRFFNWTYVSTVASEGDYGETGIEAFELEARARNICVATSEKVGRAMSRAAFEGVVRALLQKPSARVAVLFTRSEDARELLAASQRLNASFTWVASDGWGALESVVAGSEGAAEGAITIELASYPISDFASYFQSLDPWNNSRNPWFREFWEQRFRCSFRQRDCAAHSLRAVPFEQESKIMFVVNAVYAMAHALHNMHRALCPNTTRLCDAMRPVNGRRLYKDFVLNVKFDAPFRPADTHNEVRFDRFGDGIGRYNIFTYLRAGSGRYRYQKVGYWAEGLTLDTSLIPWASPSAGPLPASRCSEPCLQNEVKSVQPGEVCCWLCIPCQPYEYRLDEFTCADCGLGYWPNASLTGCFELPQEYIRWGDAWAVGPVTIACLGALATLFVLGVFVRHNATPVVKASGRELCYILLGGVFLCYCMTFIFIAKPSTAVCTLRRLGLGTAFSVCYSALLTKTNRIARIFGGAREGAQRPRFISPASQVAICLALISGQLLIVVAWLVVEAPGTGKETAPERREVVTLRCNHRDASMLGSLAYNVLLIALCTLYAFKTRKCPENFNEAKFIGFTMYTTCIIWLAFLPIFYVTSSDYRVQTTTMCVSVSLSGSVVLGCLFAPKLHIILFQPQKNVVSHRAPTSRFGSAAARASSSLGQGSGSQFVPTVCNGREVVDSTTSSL

One test concerns the target human mGluR2 (Homo sapiens (Human), UniProt Q14416). Description: [35S]GTPγS binding assay (Affinity to mGluR2). It counts as biochemical. The note with it: cell membrane fraction of HEK293 cells stably expressing human mGluR2; glutamic acid 10 μM. Here is the method: (Preparation of Cell Membrane Fraction of HEK293 Cells Stably Expressing Human Metabotropic Glutamate Receptor 2 (mGluR2))
HEK293 cells stably expressing human mGluR2 and human glutamate transporter SLC1A3 were cultured in a Dulbecco's modified Eagle's medium with 10% fetal bovine serum (50 units/mL of penicillin, 50 μg/mL of streptomycin, 60 μg/mL of geneticin, 400 μg/mL of hygromycin B and 2 mM of glutamine) at 37° C. under 5% CO2. Confluent cell cultures were washed twice with PBS(−), and then scraped off with a cell scraper, and subjected to centrifugal separation at 4° C. and 1500 rpm for 5 minutes for collecting cells. The centrifuged sediment (cell pellet) was homogenized in a 20 mM HEPES buffer containing 10 mM EDTA (pH 7.4) by using sonicator and centrifuged at 4° C. and 1500×g for 30 minutes. The supernatant (soluble fraction) was subjected to the centrifugal separation at 4° C. and 40,000×g for 30 minutes, and thus, insoluble fraction was obtained. After additional centrifugally washing the obtained fraction with 20 mM HEPES buffer containing 10 mM EDTA (pH 7.4), the pellet was centrifugally suspended with a 20 mM HEPES buffer containing 0.1 mM EDTA, and the cell membrane fraction was obtained by the centrifugal separation at 4° C. and 40,000×g for 30 minutes. The thus obtained cell membrane fraction was suspended in a 20 mM HEPES buffer containing 0.1 mM EDTA in a protein concentration of 3 mg/mL, which was stored at −80° C.
([^35S]GTPγS Binding Assay)
The frozen cell membrane fraction prepared as described above was thawed before use, and the resultant was diluted with a buffer for a binding assay (final concentrations: 20 mM HEPES, 100 mM NaCl, 1 mM MgCl2, 3 μM GDP, 300 μg/mL saponin, 0.1% BSA). The compound of each example was added to a cell membrane fraction containing 1.8 to 3 μg/assay of membrane protein on a plate, followed by incubation at room temperature for 30 minutes. Thereafter, with glutamic acid (in a final concentration of 10 μM) added thereto, incubation was performed at room temperature for 15 minutes, and thereafter, [^35S]GTPγS (in a final concentration of 0.8 kBq) and 588 μg WGA-SPA beads were added thereto, followed by incubation at room temperature for 1 hour. After the incubation, the plate was subjected to the centrifugal separation at 2,500 rpm and room temperature, and then, membrane cell binding radioactivity was measured with a top count.
A [^35S]GTPγS binding amount obtained by performing the above-described reaction in the absence of glutamic acid was defined as nonspecific binding, and a difference from a [^35S]GTPγS binding amount obtained in the presence of glutamic acid was defined as specific binding. On the basis of ratios of inhibiting the specific binding at various concentrations of the compounds of the respective examples, inhibition curves were obtained. Concentrations of the compounds of the respective examples at which the specific [^35S]GTPγS binding amount was suppressed by 50% (IC50 values) were calculated on the basis of the inhibition curves and shown in Tables 8 and 9.
(Binding of GTPγS marks nucleotide exchange on a G protein.)
Take `Cc1cc(-c2nc(-c3ccc(Cl)c(C#N)c3)n3c2CCO[C@H](C)C3)cc(C)n1` [Example 130]: the IC50 (commonly the point on the concentration scale where inhibition reaches its midpoint) is 26 nM. That is a double-digit nanomolar value.

Regarding `Cc1cc(-c2nc(-c3ccc(Cl)c(F)c3)n3c2CCOCC3)cc(C)n1` [Example 105], the IC50 is 92.1 nM.

`Cc1cc(-c2nc(-c3ccc(OC(F)(F)F)cc3)n3c2CCO[C@H](C)C3)cc(C)n1` [Example 51] showed an IC50 of 7.8 nM.

As to `COc1cc(-c2nc(-c3cc(C)nc(C)c3)c3n2C[C@@H](C)OCC3)ccc1C(F)F` [Example 128], the IC50 was determined as 9.1 nM.

Molecule `Cc1cc(-c2nc(-c3ccc(OC(F)F)c(F)c3)n3c2CCOCC3)ccn1` [Example 120] showed a half-inhibitory concentration (IC50) of 47.2 nM.

The molecule `Cc1cc(-c2nc(-c3ccc(F)c(OCC4(C)COC4)c3)n3c2CCO[C@H](C)C3)cc(C)n1` [Example 99] had an IC50 of 103 nM.

In turn, `COc1cc(-c2nc(-c3cc(C)nc(C)c3)c3n2CCOCC3)ccc1OC(F)F` [Example 127] showed an IC50 of 12.1 nM. This IC50 is about 8.5-fold lower than that of the molecule before.

As to `Cc1cc(-c2nc(-c3ccc(C(F)(F)F)c(C)c3)n3c2CCO[C@H](C)C3)cc(C)n1` [Example 124], the IC50 stood at 4.5 nM.

The molecule `COc1ccc(-c2nc(-c3cc(C)nc(C)c3)c3n2C[C@@H](C)OCC3)cc1Cl` [Example 33, (R)-3-(3-chloro-4-methoxyphenyl)-1-(2,6-dimethylpyridin-4-yl)-6-methyl-5,6,8,9-tetrahydroimidazo[1,5-d][1,4]oxazepine] showed an IC50 of 5 nM. The IC50 values of the last two molecules are within 1.5-fold of each other.

Consider `COc1ccc(-c2nc(-c3ccnc(C)c3)c3n2C[C@@H](C)OCC3)cc1F` [Example 60], for which the IC50 turned out to be 119 nM.

With `Cc1cc(-c2nc(-c3cccc(Cl)c3)n3c2CCO[C@H](C)C3)ccn1` [Example 63], the IC50 worked out at 78.6 nM. Compared with the last molecule, the IC50 is about 1.5-fold lower.

Take `COc1cc(-c2nc(-c3ccnc(C)c3)c3n2C[C@@H](CF)OCC3)ccc1C` [Example 72]: the IC50 came to 29.4 nM.

As for `COc1cc(-c2nc(-c3cc(C)nc(C)c3)c3n2CCOCC3)ccc1OC(F)(F)F` [Example 117], the IC50 was determined as 22 nM.

On to `Cc1cc(-c2nc(-c3ccc(Cl)c(Cl)c3)n3c2CCO[C@H](CF)C3)cc(C)n1` [Example 76], for which the IC50 is 20.9 nM. This IC50 and that of the molecule before are within 1.5-fold of each other.

In the case of `COc1cc(-c2nc(-c3cc(C)nc(C)c3)c3n2CCOCC3)ccc1Br` [Example 4, 3-(4-bromo-3-methoxyphenyl)-1-(2,6-dimethylpyridin-4-yl)-5,6,8,9-tetrahydroimidazo[1,5-d][1,4]oxazepine], the IC50 was found to be 31.9 nM. Against the preceding molecule, the IC50 is about 1.5-fold higher.

`Cc1cc(-c2nc(-c3ccc(C(F)F)c(Cl)c3)n3c2CCOCC3)cc(C)n1` [Example 137] yielded an IC50 of 18.7 nM.

For the molecule `Cc1cc(-c2nc(-c3ccc(OC(F)F)c(C)c3)n3c2CCO[C@H](C)C3)ccn1` [Example 15, (R)-3-(4-(difluoromethoxy)-3-methylphenyl)-6-methyl-1-(2-methylpyridin-4-yl)-5,6,8,9-tetrahydroimidazo[1,5-d][1,4]oxazepine], the IC50 came out at 7.4 nM.

In the case of `Cc1cc(-c2nc(-c3ccc(Cl)c(Cl)c3)n3c2CCO[C@H](C)C3)cc(CF)n1` [Example 89], the IC50 worked out at 13.2 nM.

In the case of `Cc1cc(-c2nc(-c3ccc(F)c(OCC(F)(F)F)c3)n3c2CCOCC3)cc(C)n1` [Example 93], the IC50 is 28.7 nM.

As for `Cc1cc(-c2nc(-c3ccc(F)c(OCC4CCC4)c3)n3c2CCO[C@H](C)C3)ccn1` [Example 100], the IC50 is 25.3 nM. The IC50 values of the last two molecules are within 1.5-fold of each other.

In turn, `Cc1cc(-c2nc(-c3ccc(F)c(OCC4CCC4)c3)n3c2CCO[C@H](C)C3)cc(C)n1` [Example 98] came in with an IC50 of 3.1 nM. Compared with the last molecule, the IC50 is about 8.2-fold lower.

Turning to `Cc1cc(-c2nc(-c3ccc(Cl)c(Cl)c3)n3c2CCOCC3)cc(C)n1` [Example 103], the IC50 came to 26 nM. This IC50 lies about 8.4-fold higher than the previous one.

Molecule `Cc1cc(-c2nc(-c3ccc(Cl)c(C)c3)n3c2CCO[C@H](C)C3)cc(CF)n1` [Example 88] yielded an IC50 of 16.7 nM.

Take `COc1cc(-c2nc(-c3ccnc(CO)c3)c3n2C[C@@H](C)OCC3)ccc1Cl` [Example 47]: the IC50 amounted to 242 nM.

For the molecule `COc1cc(-c2nc(-c3cc(C)nc(C)c3)c3n2C[C@@H](C)OCC3)ccc1F` [Example 136], the IC50 was 33.9 nM.

In turn, `Cc1cc(-c2nc(-c3ccc(OC4CC4)c(Cl)c3)n3c2CCO[C@H](C)C3)cc(C)n1` [Example 19, (R)-3-(3-chloro-4-cyclopropoxyphenyl)-1-(2,6-dimethylpyridin-4-yl)-6-methyl-5,6,8,9-tetrahydroimidazo[1,5-d][1,4]oxazepine] came in with an IC50 of 3 nM. This IC50 lies about 11-fold lower than the previous one.

The molecule `Cc1cc(-c2nc(-c3ccc(C(F)(F)F)c(Cl)c3)n3c2CCO[C@H](C)C3)cc(C)n1` [Example 129] gave an IC50 of 15.7 nM.

For the molecule `Cc1cc(-c2nc(-c3ccc(Cl)c(Cl)c3)n3c2CCO[C@H](C)C3)cc(C)n1` [Example 65], the IC50 came to 14 nM.

`Cc1cc(-c2nc(-c3ccc(OC(F)F)c(C)c3)n3c2CCO[C@H](CF)C3)cc(C)n1` [Example 27, (S)-3-(4-(difluoromethoxy)-3-methylphenyl)-1-(2,6-dimethylpyridin-4-yl)-6-(fluoromethyl)-5,6,8,9-tetrahydroimidazo[1,5-d][1,4]oxazepine]: the IC50 came out at 3.5 nM.

Molecule `Cc1cc(-c2nc(-c3ccc(Cl)c(OCC(F)(F)F)c3)n3c2CCOCC3)cc(C)n1` [Example 3, 3-(4-chloro-3-(2,2,2-trifluoroethoxy)phenyl)-1-(2,6-dimethylpyridin-4-yl)-5,6,8,9-tetrahydroimidazo[1,5-d][1,4]oxazepine] had an IC50 of 13.9 nM.

Consider `COc1cc(-c2nc(-c3cc(C)nc(C)c3)c3n2CCOCC3)ccc1C(F)F` [Example 121], for which the IC50 is 40.9 nM.

Still in this test, the particulars now being: cell membrane fraction of HEK293 cells stably expressing human mGluR2; glutamic acid 10 μM; inhibition of specific [35S]GTPγS binding.
Turning to `Cc1cc(-c2nc(-c3ccc(OC(F)(F)F)c(C)c3)n3c2CCO[C@H](CF)C3)cc(C)n1` [Example 161], the IC50 was determined as 4 nM.

In turn, `Cc1cc(-c2nc(-c3ccc(OC4CC4)c(C)c3)n3c2CCO[C@H](C)C3)cc(CF)n1` [Example 208] came in with an IC50 of 4.7 nM.

Regarding `Cc1cc(-c2nc(-c3ccc(OC(F)F)c(CF)c3)n3c2CCO[C@H](C)C3)cc(C)n1` [Example 234], the IC50 amounted to 1.9 nM.

With `CCOc1ccc(-c2nc(-c3cc(C)nc(C)c3)c3n2C[C@@H](CF)OCC3)cc1C` [Example 243], the IC50 is 1.7 nM.

In turn, `Cc1cc(-c2nc(-c3ccc(F)c(OC(F)(F)F)c3)n3c2CCO[C@H](C)C3)ccn1` [Example 158] yielded an IC50 of 44.6 nM.

`COc1ccc(-c2nc(-c3cc(C)nc(C)c3)c3n2C[C@@H](C)OCC3)cc1OC(F)(F)F` [Example 154] gave an IC50 of 6.7 nM.

With `COc1cc(-c2nc(-c3ccnc(C)c3)c3n2C[C@@H](C)OCC3)ccc1OC(F)F` [Example 149], the IC50 was 18.9 nM.

Turning to `Cc1cc(-c2nc(-c3ccc(OCC4CC4)c(Cl)c3)n3c2CCOCC3)cc(C)n1` [Example 217], the IC50 was determined as 60.6 nM. This IC50 lies about 3.2-fold higher than the previous one.

Consider `COc1cc(-c2nc(-c3cc(C)nc(C(F)F)c3)c3n2C[C@@H](C)OCC3)ccc1OC(F)F` [Example 192], for which the IC50 came to 5 nM. This IC50 lies about 12-fold lower than the previous one.

Take `Cc1cc(-c2nc(-c3ccc(F)c(C(F)(F)F)c3)n3c2CCO[C@H](C)C3)cc(C)n1` [Example 143]: the IC50 was 13.6 nM.

The molecule `Cc1cc(-c2nc(-c3ccc(OC(F)(F)F)c(C#N)c3)n3c2CCO[C@H](CF)C3)ccn1` [Example 196] displayed an IC50 of 3.8 nM. Compared with the last molecule, the IC50 is about 3.6-fold lower.

Take `COc1cc(-c2nc(-c3cc(C)nc(CO)c3)c3n2C[C@@H](CF)OCC3)ccc1OC(F)F` [Example 194]: the IC50 came to 108 nM. This IC50 is about 28-fold higher than that of the molecule before.

`Cc1cc(-c2nc(-c3ccc(OC(F)(F)F)c(C)c3)n3c2CCO[C@H](C)C3)cc(CF)n1` [Example 204] showed an IC50 of 4 nM.

`Cc1cc(-c2nc(-c3ccc(OC(F)(F)F)c(C#N)c3)n3c2CCO[C@H](C)C3)cc(C)n1` [Example 168] showed an IC50 of 4.2 nM.

The molecule `Cc1cc(-c2nc(-c3ccc(OC(F)(F)F)c(C#N)c3)n3c2CCO[C@H](C)C3)cc(CF)n1` [Example 203] had an IC50 of 4.9 nM.

`Cc1cc(-c2nc(-c3ccc(OC(F)(F)F)c(F)c3)n3c2CCO[C@H](C)C3)cc(C)n1` [Example 147] came in with an IC50 of 10.5 nM.

The molecule `Cc1cc(-c2nc(-c3ccc(OC(C)C)c(C)c3)n3c2CCO[C@H](CF)C3)cc(C)n1` [Example 244] yielded a concentration for half-maximal inhibition (IC50) of 1.8 nM.
